Measurements reported in patent US20160194299A1 (priority 2013, published 2016).
Values after ≈ are worked out from the molar mass of the structure shown.

Tested on: Mtb
Assay: microbe, parasite or virus in culture
Type: cell-based, Mycobacterium tuberculosis
Details: for MIC: Mycobacterium tuberculosis, read-out: MIC (II)

| Structure (SMILES) | MIC [µg/mL] | MIC (II) |
| --- | --- | --- |
| CCOC(=O)NC(=O)c1ccsc1NC(=O)c1ccc(S(C)(=O)=O)c([N+](=O)[O-])c1 [Compound 148] | > 3 | – |
| CC(=O)Nc1cc(C(=O)Nc2sccc2S(=O)(=O)c2ccccc2)ccn1 [Compound 156] | > 3 | – |
| CC(=O)Nc1cc(C(=O)Nc2sccc2S(=O)(=O)c2ccccn2)ccn1 [Compound 194] | > 3 | – |
| CC(=O)Nc1cc(C(=O)Nc2nnc(C(F)(F)F)s2)ccn1 [Compound 190] | > 3 | – |
| CCOC(=O)NC(=O)c1ccsc1NC(=O)c1cnccn1 [Compound 166] | > 3 | – |
| CCOC(=O)NC(=O)c1c(NC(=O)c2ccnc(NC(C)=O)c2)sc2c1CCN(CC)C2 [Compound 188] | > 3 | – |
| CCOCCOCCOC(=O)NC(=O)c1ccsc1NC(=O)c1nc2ccccc2s1 [Compound 206] | > 3 | – |
| CCOC(=O)NC(=O)c1ccsc1NC(=O)c1nc2cc(OC)ccc2s1 [Compound 6] | < 1 | – |
| CCOC(=O)NC(=O)c1ccsc1NC(=O)c1c(F)ccc(OC)c1F [Compound 173] | > 3 | – |
| CCNC(=O)Nc1cc(C(=O)Nc2sccc2C(=O)NC(=O)OCC)ccn1 [Compound 7] | < 1 | – |
| COC(=O)NC(=O)c1ccsc1NC(=O)c1ccc(S(=O)(=O)N2CCCC2)cc1 [Compound 5] | < 1 | – |
| CNC(=O)c1ccsc1NC(=O)c1ccnc(NC(C)=O)c1 [Compound 183] | > 3 | – |
| CCOC(=O)NC(=O)c1ccsc1NC(=O)c1cc2cc(Cl)ccc2[nH]1 [Compound 196] | > 3 | – |
| CCOC(=O)NC(=O)c1ccsc1NC(=O)c1c(F)cc(F)cc1F [Compound 176] | > 3 | – |
| CCOC(=O)NC(=O)c1ccsc1NC(=O)c1ccccn1 [Compound 167] | > 3 | – |
| CCOC(=O)NC(=O)c1ccsc1NC(=O)c1nn(C)c2ccccc12 [Compound 201] | > 3 | – |
| CC(=O)Nc1cc(C(=O)Nc2sccc2C(=O)N2CCOCC2)ccn1 [Compound 181] | > 3 | – |
| CCOC(=O)NC(=O)c1ccsc1NC(=O)c1ccnc(OCC)c1 [Compound 149] | > 3 | – |
| CCOC(=O)NC(=O)c1ccsc1NC(=O)c1ccnc(NS(=O)(=O)c2ccc(C)cc2)c1 [Compound 153] | > 3 | – |
| CCOC(=O)NC(=O)c1ccsc1NC(=O)c1ccc2c(c1)NC(=O)CS2 [Compound 9] | 1 to 3 (≈ 2.47 to 7.4 µM) | – |
| CCOC(=O)NC(=O)c1ccsc1NC(=O)c1ccncn1 [Compound 165] | > 3 | – |
| CCOC(=O)NC(=O)c1ccsc1NC(=O)c1ccnc(C(F)(F)F)c1 [Compound 178] | > 3 | – |

| Structure (SMILES) | MIC [µg/mL] | MIC (II) |
| --- | --- | --- |
| CCOC(=O)NC(=O)c1ccsc1NC(=O)c1cn2c(-c3ccc(C(F)(F)F)cc3)cnc2cn1 [Compound 202] | > 3 | – |
| CCOC(=O)NC(=O)c1ccsc1NC(=O)c1ccc(C(C)(F)F)nc1 [Compound 157] | > 3 | – |
| CCOC(=O)NC(=O)c1c(NC(=O)c2ccnc(NC(C)=O)c2)sc2c1CCCC2 [Compound 185] | > 3 | – |
| CCOC(=O)NC(=O)c1ccsc1NC(=O)Cc1ccccc1 [Compound 171] | > 3 | – |
| CCOC(=O)NC(=O)c1ccsc1NC(=O)c1ccc(C#N)cc1 [Compound 207] | > 3 | – |
| CCOC(=O)NC(=O)c1ccsc1NC(=O)c1ccc(OC)cc1 [Compound 174] | > 3 | – |
| CCOC(=O)NC(=O)c1ccsc1NC(=O)c1ccnc(N(C)C)c1 [Compound 168] | > 3 | – |
| CCOC(=O)NC(=O)c1ccsc1NC(=O)C1CCCCC1 [Compound 177] | > 3 | – |
| CCOC(=O)NC(=O)c1ccsc1NC(=O)c1ccc2c(c1)nc(C(F)(F)F)n2C(C)C [Compound 204] | > 3 | – |
| CCOC(=O)NC(=O)c1ccsc1NC(=O)c1ncccn1 [Compound 197] | > 3 | – |
| CCOC(=O)NC(=O)c1ccsc1NC(=O)c1ccnc(NC(=O)C(F)(F)F)c1 [Compound 193] | > 3 | – |
| CCOC(=O)NC(=O)c1ccsc1NC(=O)c1csc(-c2ccncc2)n1 [Compound 2] | 1 to 3 (≈ 2.48 to 7.45 µM) | – |
| CCOC(=O)NC(=O)c1ccsc1NC(=O)C1CCN(c2ccccn2)CC1 [Compound 155] | > 3 | – |
| O=C(Nc1sccc1C(=O)NCc1ccccc1)c1nc2ccccc2s1 [Compound 191] | > 3 | – |
| CCOC(=O)NC(=O)c1ccsc1NC(=O)c1ccc(Oc2ccc(F)cc2)cc1 [Compound 203] | > 3 | – |
| NC(=O)c1cnn(-c2ccccc2)c1NC(=O)c1nc2ccccc2s1 [Compound 179] | > 3 | – |
| CCOC(=O)NC(=O)c1ccsc1NC(=O)c1ccc2[nH]c(C)nc2c1 [Compound 199] | – | C (key: A: <1 μg/mL; B: 1-3 μg/mL; C: >3 μg/mL) |
| CC(=O)Nc1cc(C(=O)Nc2sccc2C(=O)N(C)C)ccn1 [Compound 205] | > 3 | – |
| CCOC(=O)N(C)C(=O)c1ccsc1NC(=O)c1ccnc(NC(C)=O)c1 [Compound 189] | > 3 | – |
| C#CCNC(=O)[C@H](CCC1(C)N=N1)NC(=O)CCC(=O)Nc1cc(C(=O)Nc2sccc2C(=O)NC(=O)OCC)ccn1 [Compound 98] | 1 to 3 (≈ 1.64 to 4.91 µM) | – |
| CCOC(=O)NC(=O)c1ccsc1NC(=O)c1ccnc(N)c1 [Compound 163] | > 3 | – |
| CCOC(=O)NC(=O)c1ccsc1NC(=O)c1cncs1 [Compound 158] | > 3 | – |

| Structure (SMILES) | MIC [µg/mL] | MIC (II) |
| --- | --- | --- |
| CCOC(=O)NC(=O)c1ccsc1NC(=O)c1cncnc1 [Compound 164] | > 3 | – |
| CCOC(=O)NC(=O)c1ccsc1NC(=O)c1cnc2[nH]ccc2c1 [Compound 159] | – | C (key: A: <1 μg/mL; B: 1-3 μg/mL; C: >3 μg/mL) |
| CC(=O)Nc1cc(C(=O)Nc2sccc2C(=O)Nc2ccc(Cl)cc2)ccn1 [Compound 182] | > 3 | – |
| CCOC(=O)NC(=O)c1ccsc1NC(=O)c1ccc2[nH]c(S)nc2c1 [Compound 162] | – | C (key: A: <1 μg/mL; B: 1-3 μg/mL; C: >3 μg/mL) |
| CCOC(=O)c1c(NC(=O)c2ccnc(NC(C)=O)c2)sc2c1CCCC2 [Compound 186] | > 3 | – |
| CCOC(=O)NC(=O)c1ccsc1NC(=O)c1ccc(S(C)(=O)=O)c(N)c1 [Compound 150] | > 3 | – |
| CCOC(=O)NC(=O)c1ccsc1NC(=O)c1cnc(N2CCOCC2)nc1 [Compound 152] | > 3 | – |
| CC(=O)Nc1cc(C(=O)Nc2sccc2C(=O)N2CCCCC2)ccn1 [Compound 180] | > 3 | – |
| CC(=O)Nc1cc(C(=O)Nc2sccc2S(C)(=O)=O)ccn1 [Compound 184] | > 3 | – |
| COC(=O)NC(=O)c1ccsc1NC(=O)c1ccc(Oc2ccccc2)cc1 [Compound 200] | > 3 | – |
| CCOC(=O)NC(=O)c1ccsc1NC(=O)c1sc2ncnc(O)c2c1C [Compound 151] | > 3 | – |
| CCOC(=O)NC(=O)c1ccsc1NC(=O)c1ccnc(NC(=O)c2ccc(F)cc2)c1 [Compound 8] | 1 to 3 (≈ 2.19 to 6.57 µM) | – |
| CCOC(=O)NC(=O)c1ccsc1NC(=O)c1cc2ccccc2n1C [Compound 195] | > 3 | – |
| CC(C)c1nnc(NC(=O)c2ccsc2NC(=O)c2nc3ccccc3s2)o1 [Compound 160] | > 3 | – |
| CCOC(=O)NC(=O)c1ccsc1NC(=O)c1c(F)ccc(C)c1F [Compound 175] | > 3 | – |
| COC(=O)Nc1cc(C(=O)Nc2sccc2C(=O)Nc2ccccn2)ccn1 [Compound 198] | > 3 | – |
| CCOC(=O)NC(=O)c1ccsc1NC(=O)c1ccnc(NC(=O)OCc2ccccc2)c1 [Compound 154] | > 3 | – |
| CCOC(=O)NC(=O)c1ccsc1NC(=O)c1nc(C)cs1 [Compound 161] | > 3 | – |
| CCOC(=O)NC(=O)c1ccccc1NC(=O)c1ccnc(NC(C)=O)c1 [Compound 187] | > 3 | – |
| CCOC(=O)NC(=O)c1ccsc1NC(=O)c1ccncc1 [Compound 170] | > 3 | – |
